Assay results reported in ChEMBL document CHEMBL1201861, “Genomics of Drug Sensitity in Cancer screening data, Wellcome Trust Sanger Institute”.

Experiments:
Assay in all cases: cells
[1] = tested on: KGN; type: functional, cell-based, Homo sapiens; details: Homo sapiens, KGN;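 note: growth inhibition of KGN cells, read out with a cell viability assay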
Description: SANGER: Inhibition of human KGN cell growth in a cell viability assay.

[2] = tested on: KNS-42; type: functional, cell-based; details: Homo sapiens;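 note: growth inhibition of KNS-42 cells, read out with a cell viability assay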
Description: SANGER: Inhibition of human KNS-42 cell growth in a cell viability assay.

[3] = tested on: MMAC-SF; type: functional, cell-based; details: Homo sapiens;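 note: growth inhibition of human MMAC-SF cells, read out with a cell viability assay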
Description: SANGER: Inhibition of human MMAC-SF cell growth in a cell viability assay.

[4] = tested on: LU-139; type: functional, cell-based, Homo sapiens; details: Homo sapiens, LU-139
Description: SANGER: Inhibition of human LU-139 cell growth in a cell viability assay.

[5] = tested on: KS-1; type: functional, cell-based; details: Homo sapiens;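 note: growth inhibition of KS-1 cells, read out with a cell viability assay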
Description: SANGER: Inhibition of human KS-1 cell growth in a cell viability assay.

[6] = tested on: KURAMOCHI; type: functional, cell-based, Homo sapiens; details: Homo sapiens, KURAMOCHI;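 note: growth inhibition of KURAMOCHI cells, read out with a cell viability assay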
Description: SANGER: Inhibition of human KURAMOCHI cell growth in a cell viability assay.

[7] = tested on: GB-1; type: functional, cell-based, Homo sapiens; details: Homo sapiens, GB-1;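 note: growth of GB-1 cells judged by a viability assay, IC50 marks the concentration inhibiting growth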
Description: SANGER: Inhibition of human GB-1 cell growth in a cell viability assay.

[8] = tested on: GI-ME-N; type: functional, cell-based, Homo sapiens; details: Homo sapiens, GI-ME-N;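 note: growth inhibition of human GI-ME-N cells, read out with a cell viability assay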
Description: SANGER: Inhibition of human GI-ME-N cell growth in a cell viability assay.

[9] = tested on: SH-4; type: functional, cell-based; details: Homo sapiens;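 note: growth inhibition of SH-4 cells, read out with a cell viability assay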
Description: SANGER: Inhibition of human SH-4 cell growth in a cell viability assay.

[10] = tested on: MHH-PREB-1; type: functional, cell-based, Homo sapiens; details: Homo sapiens, MHH-PREB-1;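 note: cell viability assay measuring inhibition of proliferation of human MHH-PREB-1 cells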
Description: SANGER: Inhibition of human MHH-PREB-1 cell growth in a cell viability assay.

[11] = tested on: NMC-G1; type: functional, cell-based, Homo sapiens; details: Homo sapiens, NMC-G1;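 note: growth inhibition of the NMC-G1 cell line, measured with a cell viability read-out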
Description: SANGER: Inhibition of human NMC-G1 cell growth in a cell viability assay.

[12] = tested on: HCE-4; type: functional, cell-based; details: Homo sapiens;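 note: cell viability assay measuring inhibition of growth in the human HCE-4 cell line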
Description: SANGER: Inhibition of human HCE-4 cell growth in a cell viability assay.

[13] = tested on: U-266; type: functional, cell-based, Homo sapiens; details: Homo sapiens, U-266
Description: SANGER: Inhibition of human U-266 cell growth in a cell viability assay.

[14] = tested on: CCRF-CEM; type: functional, cell-based, Homo sapiens; details: Homo sapiens, CCRF-CEM;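 note: inhibition of CCRF-CEM cell growth, measured by a cell viability assay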
Description: SANGER: Inhibition of human CCRF-CEM cell growth in a cell viability assay.

[15] = tested on: NB6; type: functional, cell-based, Homo sapiens; details: Homo sapiens, NB6;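 note: growth inhibition of NB6 cells, read out by a cell viability assay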
Description: SANGER: Inhibition of human NB6 cell growth in a cell viability assay.

[16] = tested on: LAMA-84; type: functional, cell-based, Homo sapiens; details: Homo sapiens, LAMA-84;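 note: growth inhibition of LAMA-84 cells, read out with a cell viability assay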
Description: SANGER: Inhibition of human LAMA-84 cell growth in a cell viability assay.

[17] = tested on: HCE-T; type: functional, cell-based, Homo sapiens; details: Homo sapiens, HCE-T;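 note: cell viability assay read-out, reporting inhibition of HCE-T cell growth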
Description: SANGER: Inhibition of human HCE-T cell growth in a cell viability assay.

[18] = tested on: MN-60; type: functional, cell-based, Homo sapiens; details: Homo sapiens, MN-60;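 note: growth inhibition of the MN-60 cell line, determined with a cell viability assay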
Description: SANGER: Inhibition of human MN-60 cell growth in a cell viability assay.

[19] = tested on: JVM-3; type: functional, cell-based, Homo sapiens; details: Homo sapiens, JVM-3;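 note: growth inhibition of human JVM-3 cells, read out with a cell viability assay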
Description: SANGER: Inhibition of human JVM-3 cell growth in a cell viability assay.

[20] = tested on: GR-ST; type: functional, cell-based, Homo sapiens; details: Homo sapiens, GR-ST
Description: SANGER: Inhibition of human GR-ST cell growth in a cell viability assay.

[21] = tested on: MS-1; type: functional, cell-based, Homo sapiens; details: Homo sapiens, MS-1;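 note: growth inhibition of MS-1 cells, read out by cell viability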
Description: SANGER: Inhibition of human MS-1 cell growth in a cell viability assay.

[22] = tested on: TK-10; type: functional, cell-based, Homo sapiens; details: Homo sapiens, TK-10;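 note: growth inhibition of TK-10 cells, read out in a cell viability assay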
Description: SANGER: Inhibition of human TK10 cell growth in a cell viability assay.

[23] = tested on: MZ7-mel; type: functional, cell-based, Homo sapiens; details: Homo sapiens, MZ7-mel;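 note: growth inhibition of human MZ7-mel cells, measured by a cell viability assay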
Description: SANGER: Inhibition of human MZ7-mel cell growth in a cell viability assay.

[24] = tested on: NCI-H526; type: functional, cell-based, Homo sapiens; details: Homo sapiens, NCI-H526;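 note: growth inhibition of the human NCI-H526 cell line, measured by a cell viability assay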
Description: SANGER: Inhibition of human NCI-H526 cell growth in a cell viability assay.

[25] = tested on: EOL1; type: functional, cell-based, Homo sapiens; details: Homo sapiens, EOL1;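 note: growth inhibition of EoL-1 cells, read out by a cell viability assay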
Description: SANGER: Inhibition of human EoL-1-cell cell growth in a cell viability assay.

[26] = tested on: D283 Med; type: functional, cell-based, Homo sapiens; details: Homo sapiens, D283 Med
Description: SANGER: Inhibition of human D-283MED cell growth in a cell viability assay.

[27] = tested on: ES8; type: functional, cell-based, Homo sapiens; details: Homo sapiens, ES8;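 note: growth inhibition of human ES8 cells, read out with a cell viability assay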
Description: SANGER: Inhibition of human ES8 cell growth in a cell viability assay.

[28] = tested on: SK-MEL-2; type: functional, cell-based, Homo sapiens; details: Homo sapiens, SK-MEL-2;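 note: growth inhibition of human SK-MEL-2 cells measured with a cell viability assay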
Description: SANGER: Inhibition of human SK-MEL-2 cell growth in a cell viability assay.

[29] = tested on: KY821; type: functional, cell-based, Homo sapiens; details: Homo sapiens, KY821;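 note: growth inhibition of human KY821 cells, read out by a cell viability assay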
Description: SANGER: Inhibition of human KY821 cell growth in a cell viability assay.

[30] = tested on: HD-MY-Z; type: functional, cell-based, Homo sapiens; details: Homo sapiens, HD-MY-Z;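 note: growth inhibition of HD-MY-Z cells, read out with a cell viability assay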
Description: SANGER: Inhibition of human HD-MY-Z cell growth in a cell viability assay.

[31] = tested on: A101D; type: functional, cell-based, Homo sapiens; details: Homo sapiens, A101D;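 note: growth inhibition of the cell line, measured with a viability assay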
Description: SANGER: Inhibition of human A101D cell growth in a cell viability assay.

[32] = tested on: LC-2-ad; type: functional, cell-based, Homo sapiens; details: Homo sapiens, LC-2-ad;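 note: growth inhibition of human LC-2-ad cells, read out with a cell viability assay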
Description: SANGER: Inhibition of human LC-2-ad cell growth in a cell viability assay.

[33] = tested on: LU-134-A; type: functional, cell-based, Homo sapiens; details: Homo sapiens, LU-134-A
Description: SANGER: Inhibition of human LU-134-A cell growth in a cell viability assay.

[34] = tested on: TE-9; type: functional, cell-based, Homo sapiens; details: Homo sapiens, TE-9;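 note: cell growth inhibition, measured with a cell viability readout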
Description: SANGER: Inhibition of human TE-9 cell growth in a cell viability assay.

[35] = tested on: SJSA-1; type: functional, cell-based, Homo sapiens; details: Homo sapiens, SJSA-1;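 note: growth inhibition of human SJSA-1 cells, read out through a cell viability measurement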
Description: SANGER: Inhibition of human SJSA-1 cell growth in a cell viability assay.

[36] = tested on: SF-126; type: functional, cell-based, Homo sapiens; details: Homo sapiens, SF-126;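 note: growth inhibition of human SF126 cells, read out with a cell viability assay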
Description: SANGER: Inhibition of human SF126 cell growth in a cell viability assay.

[37] = tested on: NCI-H1092; type: functional, cell-based, Homo sapiens; details: Homo sapiens, NCI-H1092;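 note: cell growth inhibition measured with a cell viability assay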
Description: SANGER: Inhibition of human NCI-H1092 cell growth in a cell viability assay.

[38] = tested on: CAS-1; type: functional, cell-based, Homo sapiens; details: Homo sapiens, CAS-1;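 note: growth inhibition of CAS-1 cells, measured with a cell viability assay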
Description: SANGER: Inhibition of human CAS-1 cell growth in a cell viability assay.

[39] = tested on: KG-1; type: functional, cell-based, Homo sapiens; details: Homo sapiens, KG-1;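 note: growth inhibition of KG-1 cells, read out by a cell viability assay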
Description: SANGER: Inhibition of human KG-1 cell growth in a cell viability assay.

[40] = tested on: 8-MG-BA; type: functional, cell-based, Homo sapiens; details: Homo sapiens, 8-MG-BA;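 note: growth inhibition of 8-MG-BA cells, read out with a cell viability assay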
Description: SANGER: Inhibition of human 8-MG-BA cell growth in a cell viability assay.

[41] = tested on: CTV-1; type: functional, cell-based, Homo sapiens; details: Homo sapiens, CTV-1;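 note: growth inhibition of the cell line, read out with a cell viability assay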
Description: SANGER: Inhibition of human CTV-1 cell growth in a cell viability assay.

[42] = tested on: NB13; type: functional, cell-based, Homo sapiens; details: Homo sapiens, NB13;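 note: cell viability readout measuring growth inhibition of human NB13 cells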
Description: SANGER: Inhibition of human NB13 cell growth in a cell viability assay.

[43] = tested on: SW684; type: functional, cell-based, Homo sapiens; details: Homo sapiens, SW684; read-out: IC50;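 note: growth inhibition of human SW684 cells, measured by a cell viability assay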
Description: SANGER: Inhibition of human SW684 cell growth in a cell viability assay.

[44] = tested on: ONS-76; type: functional, cell-based, Homo sapiens; details: Homo sapiens, ONS-76;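 note: growth inhibition of human ONS-76 cells, read out with a cell viability assay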
Description: SANGER: Inhibition of human ONS-76 cell growth in a cell viability assay.

[45] = tested on: K5; type: functional, cell-based, Homo sapiens; details: Homo sapiens, K5
Description: SANGER: Inhibition of human K5 cell growth in a cell viability assay.

[46] = tested on: NOS-1; type: functional, cell-based, Homo sapiens; details: Homo sapiens, NOS-1;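 note: growth inhibition of the human NOS-1 cell line, read out with a cell viability assay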
Description: SANGER: Inhibition of human NOS-1 cell growth in a cell viability assay.

[47] = tested on: 697; type: functional, cell-based, Homo sapiens; details: Homo sapiens
Description: SANGER: Inhibition of human 697 cell growth in a cell viability assay.

[48] = tested on: NCI-H1838; type: functional, cell-based, Homo sapiens; details: Homo sapiens, NCI-H1838;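 note: growth inhibition of NCI-H1838 cells, determined with a cell viability readout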
Description: SANGER: Inhibition of human NCI-H1838 cell growth in a cell viability assay.

[49] = tested on: VA-ES-BJ; type: functional, cell-based, Homo sapiens; details: Homo sapiens, VA-ES-BJ;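 note: growth inhibition of the VA-ES-BJ cell line, read out by a cell viability assay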
Description: SANGER: Inhibition of human VA-ES-BJ cell growth in a cell viability assay.

[50] = tested on: LNCaP-Clone-FGC; type: functional, cell-based, Homo sapiens; details: Homo sapiens, LNCaP-Clone-FGC
Description: SANGER: Inhibition of human LNCaP-Clone-FGC cell growth in a cell viability assay.

[51] = tested on: NCI-H69; type: functional, cell-based, Homo sapiens; details: Homo sapiens, NCI-H69;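 note: growth inhibition of the cell line, read out with a cell viability assay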
Description: SANGER: Inhibition of human NCI-H69 cell growth in a cell viability assay.

C=CC(=O)N1CCCC(Nc2nc(Nc3ccc(N(C)C(=O)CC)cc3)nc3[nH]cnc23)C1 (stereo not drawn)
IC50 [1]: > 10200 nM
IC50 [2]: > 10200 nM
IC50 [3]: > 10200 nM
IC50 [4]: > 10200 nM
IC50 [5]: 8010 nM
IC50 [6]: > 10200 nM
IC50 [7]: > 10200 nM
IC50 [8]: > 10200 nM
IC50 [9]: > 10200 nM
IC50 [10]: > 10200 nM
IC50 [11]: > 10200 nM
IC50 [12]: > 10200 nM
IC50 [13]: > 10200 nM
IC50 [14]: > 10200 nM
IC50 [15]: > 10200 nM
IC50 [16]: > 10200 nM
IC50 [17]: > 10200 nM
IC50 [18]: > 10200 nM
IC50 [19]: > 10200 nM
IC50 [20]: > 10200 nM
IC50 [21]: > 10200 nM
IC50 [22]: > 10200 nM
IC50 [23]: > 10200 nM
IC50 [24]: > 10200 nM
IC50 [25]: 4400 nM
IC50 [26]: > 10200 nM
IC50 [27]: > 10200 nM
IC50 [28]: > 10200 nM
IC50 [29]: > 10200 nM
IC50 [30]: > 10200 nM
IC50 [31]: > 10200 nM
IC50 [32]: 7270 nM
IC50 [33]: > 10200 nM
IC50 [34]: > 10200 nM
IC50 [35]: > 10200 nM
IC50 [36]: > 10200 nM
IC50 [37]: > 10200 nM
IC50 [38]: > 10200 nM
IC50 [39]: > 10200 nM
IC50 [40]: > 10200 nM
IC50 [41]: > 10200 nM
IC50 [42]: > 10200 nM
IC50 [43]: > 10200 nM
IC50 [44]: > 10200 nM
IC50 [45]: > 10200 nM
IC50 [46]: > 10200 nM
IC50 [47]: > 10200 nM
IC50 [48]: > 10200 nM
IC50 [49]: > 10200 nM
IC50 [50]: > 10200 nM
IC50 [51]: > 10200 nM

Cc1cc(N2CCOCC2)cc2[nH]c(-c3c(NC[C@@H](O)c4cccc(Cl)c4)cc[nH]c3=O)nc12
IC50 [1]: 1090 nM
IC50 [2]: > 5120 nM
IC50 [3]: 500 nM
IC50 [4]: > 5120 nM
IC50 [5]: 102 nM
IC50 [6]: 4000 nM
IC50 [7]: 495 nM
IC50 [8]: 2060 nM
IC50 [9]: 882 nM
IC50 [10]: > 5120 nM
IC50 [11]: 4610 nM
IC50 [12]: > 5120 nM
IC50 [13]: > 5120 nM
IC50 [14]: > 5120 nM
IC50 [15]: > 5120 nM
IC50 [16]: > 5120 nM
IC50 [17]: > 5120 nM
IC50 [18]: > 5120 nM
IC50 [19]: > 5120 nM
IC50 [20]: 3270 nM
IC50 [21]: > 5120 nM
IC50 [22]: 2260 nM
IC50 [23]: > 5120 nM
IC50 [24]: > 5120 nM
IC50 [25]: 1570 nM
IC50 [26]: > 5120 nM
IC50 [27]: 2300 nM
IC50 [28]: > 5120 nM
IC50 [29]: > 5120 nM
IC50 [30]: > 5120 nM
IC50 [31]: 1890 nM
IC50 [32]: 117 nM
IC50 [33]: 1600 nM
IC50 [34]: 2500 nM
IC50 [35]: 456 nM
IC50 [36]: 2470 nM
IC50 [37]: > 5120 nM
IC50 [38]: > 5120 nM
IC50 [39]: > 5120 nM
IC50 [40]: 3930 nM
IC50 [41]: 2880 nM
IC50 [42]: > 5120 nM
IC50 [43]: > 5120 nM
IC50 [44]: > 5120 nM
IC50 [45]: 1780 nM
IC50 [46]: 74.4 nM
IC50 [47]: 1120 nM
IC50 [48]: > 5120 nM
IC50 [49]: > 5120 nM
IC50 [50]: > 5120 nM
IC50 [51]: > 5120 nM

NC(=O)Nc1cc(-c2cccc(F)c2)sc1C(=O)N[C@H]1CCCNC1 [AZD-7762]
IC50 [1]: 1230 nM
IC50 [2]: > 2000 nM
IC50 [3]: > 2000 nM
IC50 [4]: > 2000 nM
IC50 [5]: 466 nM
IC50 [6]: > 2000 nM
IC50 [7]: 1380 nM
IC50 [8]: 455 nM
IC50 [9]: > 2000 nM
IC50 [10]: 34.4 nM
IC50 [11]: 986 nM
IC50 [12]: 970 nM
IC50 [13]: 763 nM
IC50 [14]: 292 nM
IC50 [15]: 985 nM
IC50 [16]: 165 nM
IC50 [17]: 442 nM
IC50 [18]: 721 nM
IC50 [19]: 230 nM
IC50 [20]: 178 nM
IC50 [21]: > 2000 nM
IC50 [22]: 379 nM
IC50 [23]: 347 nM
IC50 [24]: 1540 nM
IC50 [25]: < 7.81 nM
IC50 [26]: 137 nM
IC50 [27]: 99.2 nM
IC50 [28]: 100 nM
IC50 [29]: 214 nM
IC50 [30]: 62.5 nM
IC50 [31]: 1700 nM
IC50 [32]: 565 nM
IC50 [33]: 657 nM
IC50 [34]: 1630 nM
IC50 [35]: 417 nM
IC50 [36]: 574 nM
IC50 [37]: > 2000 nM
IC50 [38]: 1210 nM
IC50 [39]: 845 nM
IC50 [40]: 258 nM
IC50 [41]: 39 nM
IC50 [42]: 537 nM
IC50 [43]: > 2000 nM
IC50 [44]: 62 nM
IC50 [45]: 941 nM
IC50 [46]: 150 nM
IC50 [47]: 111 nM
IC50 [48]: > 2000 nM
IC50 [49]: 226 nM
IC50 [50]: 1440 nM
IC50 [51]: > 2000 nM
